From patent US10696946B2, “T-REG cell expansion” (The Board of Trustees of the University of Illinois, priority 2013, dated 2020)
Where two headings read alike, the source gives them in different places.

Assays:
Foxp3 = experiment: Pathway inhibitors on OX40L, JAG1 and IL-2-induced Foxp3 expression (RT-qPCR, Western blot); format: cell-based, mouse; conditions: at 24 h
Experimental: CD4+ T-cells (1×10^6 cells/ml) were treated with soluble OX40 L, JAG1 and IL-2 as mentioned above. In some experiments cells were pre-treated with inhibitors of Notch (GSI-R04929097, Selleckchem), NF-κ B (BAY-11-7082, Sigma-Aldrich) and STAT5 (CAS 285986-31-4, Calbiochem) signaling for 2 h and co-treated with soluble ligands for different time intervals. Cells were washed with PBS, and lysed in Laemmli buffer (Biorad) and resolved in 10% SDS-PAGE gels. Proteins were transferred to PVDF membranes (Biorad), blocked with 5% skimmed milk and incubated with primary anti-mouse Foxp3 (1:1000, ebioscience), anti-mouse phospho p65 (Ser536) and phospho STAT5 (Tyr694) (1:500, Cell Signaling Technology) antibodies. Blots were then washed, incubated with secondary anti-rabbit IgG-HRP and developed using ECL detection kit (Pierce Scientific). […] Foxp3, pp65 and pSTAT5 signal intensities were normalized to β-actin, total p65 and STAT5 signal intensities and expressed as fold change over respective controls.
For some experiments, resting and proliferating Tregs were sorted based on cell trace violet dilution. […] Gene expression values were calculated by comparative Δ Ct method after normalization to GAPDH internal control and expressed as fold change over respective controls. […] Data were analyzed using the R-package software. […]

Treg cell proliferation = experiment: Pathway inhibitors on OX40L, JAG1 and IL-2-induced Treg proliferation (flow cytometry); format: cell-based, mouse; conditions: CD4+ T-cells from NOD mice pre-treated with inhibitor
Experimental: FIG. 21. Role of NF-κB and STAT5 signaling pathways in OX40L-JAG1-IL-2 induced Treg proliferation and Foxp3 expression. (A) CD4+ T-cells from NOD mice were pre-treated with pharmacological inhibitors of indicated cell signaling pathways and treated with soluble OX40L-JAG1-IL-2. Effect of these pathway inhibitors on Treg cell proliferation was measured by flow cytometry analysis. (B) RT-qPCR analysis showing effect of inhibitors of NF-κB and STAT5 signaling pathways on Foxp3 mRNA expression (Values represent Mean±SEM, n=3, *p<0.05, **p<0.01, ***p<0.001 Vs control, ^#p<0.05, ^##p<0.01 Vs None-OX40L-JAG1-IL-2). (C) Western blot analysis showing effect of inhibitors of NF-κ B and STAT5 signaling pathways on Foxp3 protein expression. Western blot analysis of the time dependent effect of soluble OX40L-JAG1-IL-2 on (D) Foxp3 expression, (E) NF-κ B p65 phosphorylation and (F) STAT5 phosphorylation in CD4+ T-cells. […]
CD4+ T-cells (1×10^6 cells/ml) were treated with soluble OX40 L, JAG1 and IL-2 as mentioned above. […] Foxp3, pp65 and pSTAT5 signal intensities were normalized to β-actin, total p65 and STAT5 signal intensities and expressed as fold change over respective controls.

Foxp3+ Tregs = experiment: GM-BMDC / CD4+ T-cell co-culture, Treg proliferation by CFSE dilution (FACS); format: cell-based, mouse; conditions: for Treg proliferation: GM-BMDCs alone ~13.2±0.4%
Experimental: Each in vitro experiment was conducted in triplicate with T-cells, SpDCs and GM-BMDCs pooled from 3 mice. GM-BMDCs (5×10^4) and CD11c^+ SpDCs were cultured with CD4^+, CD4^+CD25^− and CD4^+CD25^+ T-cells at a ratio of 1:2 for 5 days. For proliferation assays, T-cell subpopulations were labelled with CFSE at 10 μM according to manufacturer's instruction (Invitrogen, Carlsbad, Calif.) before co-culturing them with DCs. Some cultures were supplemented with IL-2 (10 U/ml) (R&D Systems), antiOX40L (up to 10 μg/ml) antibody, OX40 agonist (OX-86, 5-10 μg/ml), anti-Jagged-1 (10-20 μg/ml) antibody or anti-Notch3 (10-20 μg/ml) antibody. For blocking experiments with anti-OX40L or anti-Jagged-1 antibodies, GM-BMDCs were pre-treated with the indicated antibodies for 30 min at 37° C. and then used in co-culture with naive CD4^+ T-cells. For blocking experiments with anti-Notch3 antibody, CD4+ T-cells isolated from mouse splenocytes were first treated with anti-Notch3 antibody at two different concentrations (10 and 20 μg/ml) or with 20 μg/ml of an anti-Notch 1 antibody, incubated at 37° C. for 30 minutes and then co-cultured with GM-BMDCs/SpDCs for 5 days. Some co-cultures were supplemented with different concentrations of gamma-secretase inhibitors (GSI) S-2188 (5 and 10 μM) or R04929097 (200 nM-5 μM).
Freshly isolated and ex vivo cultured cells were washed with PBS-BSA-EDTA or PBS containing 0.5% BSA. For surface staining, the cells were labelled with one of the following: specified FITC, PE, APC conjugated antibodies for 30 min, anti-CD4-eFluor-780, CD4-FITC (eBioscience), anti-CD25-PE, anti-CTLA4-PE, anti-CD39-PE, anti-Helios-PE, anti-TIGIT-PE or fixed, permeabilized, and stained with anti-, Anti-Ki67-PE, anti-Foxp3-APC and isotype controls antibodies (eBioscience) (1:100) in dark. […] Stained cells were washed three times and analyzed by Cyan flow cytometer (Beckman/Coulter) and data analysis was done using Summit v4.3 software.

Notch signaling = experiment: GSI-treated CD4+ T-cells from NOD mice co-cultured with G-BMDCs, proliferation by flow cytometry; format: cell-based, mouse; conditions: indicated concentrations, 5 days with G-BMDCs
Experimental: FIG. 13. […] (A) CD4+ T-cells from NOD mice were treated with γ-secretase inhibitor (GSI)-R042929097 at indicated concentrations and then co-cultured with G-BMDCs for 5 days. Extent of proliferation was measured by flow cytometry (n=3). (B) Notch3-OX40−, […], Notch3-OX40+, Notch3+OX40+ subsets of CD4^+CD25^+ Treg cells sorted out and co-cultured with G-BMDCs for 5 days and extent of proliferation was analyzed (n=2).
Bone marrow cells were cultured in complete RPMI medium containing 10% heat-inactivated FBS in the presence of 20 ng/ml GM-CSF for 3 days. On days 4 and 6, fresh medium containing 20 ng/ml GM-CSF was added. Non-adherent CD11c^+ DCs from eight day old cultures were enriched using anti-CD11c coated magnetic beads according to the manufacturer's directions (Miltenyi Biotech, Auburn, Calif.). Specific sub-populations of GM-BMDCs and CD4+CD25+ T-cells were sorted using a MoFlo flow cytometer (Beckman/Coulter, Ranch Cucamonga, Calif.) following staining with appropriate antibodies (OX40L, Jagged-1, CD4, CD25). To obtain GFP+ and GFP− cells, total CD4+ cells were first separated using CD4 microbeads (Miltenyi Biotech) and then the cells were sorted based on GFP expression using a MoFlo flow cytometer (Beckman/Coulter). […]

NOD mice = conditions: cited from earlier work

Cc1ccc(S(=O)(=O)/C=C/C#N)cc1 [NF-κB inhibitor]
OX40L, JAG1 and IL-2-induced Foxp3 expression (Foxp3): significantly down regulated
OX40L, JAG1 and IL-2-induced Treg proliferation (Treg cell proliferation): significantly blocked

CC(C)(C(=O)NCC(F)(F)C(F)(F)F)C(=O)N[C@@H]1C(=O)Nc2ccccc2-c2ccccc21 [R04929097]
Treg proliferation (Foxp3+ Tregs; 250 nM): 5.2±0.4%
Treg proliferation (Foxp3+ Tregs; 5 μM): 1.7±0.3%
GM-BMDC mediated Treg proliferation (Foxp3+ Tregs; different concentrations (FIG. 8)): abrogated
inhibition of Notch signaling / Treg proliferation (Notch signaling): dose-dependent manner

O=C(N/N=C/c1coc2ccccc2c1=O)c1cccnc1 [STAT5 inhibitor]
OX40L, JAG1 and IL-2-induced Foxp3 expression (Foxp3): only moderately inhibited
OX40L, JAG1 and IL-2-induced Treg proliferation (Treg cell proliferation): significantly blocked

B1: OX40L: tumor necrosis factor superfamily member with co-stimulatory function, binds OX40 (protein, UniProt P23510 1-183, looked up)
Tumor necrosis factor ligand …: MERVQPLEENVGNAARPRFERNKLLLVASVIQGLGLLLCFTYICLHFSALQVSHRYPRIQSIKVQFTEYKKEKGFILTSQKEDEIMKVQNNSVIINCDGFYLISLKGYFSQEVNISLHYQKDEEPLFQLKKVRSVNSLMVASLTYKDKVYLNVTTDNTSLDDFHVNGGELILIHQNPGEFCVL
CD4+CD25+Foxp3+ Treg cells (NOD mice; 6-week old NOD mice): increase
development of diabetes (NOD mice; 6-week old NOD mice): protect
development of diabetes (NOD mice; 12-week old NOD mice): accelerated diabetes development
